The values below come from US20070128217A1 (priority 2003, published 2007).

Assay [1] deals with rabbit serum obtained by immunizing a rabbit with the SARS-CoV strain Frankfurt 1. The class given is binding. Details: Binding of a rabbit serum to linear peptides / Binding of a rabbit serum to looped peptides / Rabbit serum linear peptides / Rabbit serum looped peptides / Binding of a rabbit serum to linear peptides of protein N of SARS-CoV Urbani (Rabbit serum linear peptides) / Binding of a rabbit serum to looped/cyclic peptides of protein N of SARS-CoV Urbani (Rabbit serum looped peptides): unit not given here.

The subject of assay [2] is antibodies in sera from SARS patients (sera 1a, 1b, 2, 6, 37, 62, London, SARS-yellow, SARS-green). The class given is binding, human. Further details: Binding of serum 6 to linear peptides of protein X1 of SARS-CoV Urbani / Binding of serum 37 to linear peptides of protein X1 of SARS-CoV Urbani / Binding of serum 6 to looped/cyclic peptide (PEPSCAN-ELISA) / Binding of serum 37 to looped/cyclic peptide (PEPSCAN-ELISA) / Binding of serum 37 to looped/cyclic peptides of protein X1 of SARS-CoV Urbani / Binding of serum 6 to linear peptides of protein X2 / Binding of serum 37 to linear peptides of protein X2 / Binding of serum 37 to looped/cyclic peptides of protein X2 of SARS-CoV Urbani / Binding of serum 6 to linear peptides of protein M of SARS-CoV Urbani / Binding of serum 37 to linear peptides of protein M of SARS-CoV Urbani / Binding of serum 6 to looped/cyclic peptides of protein M of SARS-CoV Urbani / Binding of serum 37 to looped/cyclic peptides of protein M of SARS-CoV Urbani / Binding of serum 6 to linear peptides of protein X3 of SARS-CoV Urbani / Binding of serum 37 to linear peptides of protein X3 of SARS-CoV Urbani / Binding of serum 37 to looped/cyclic peptides of protein X3 of SARS-CoV Urbani / Binding of serum 6 to linear peptides of protein X4 of SARS-CoV Urbani / Binding of serum 37 to linear peptides of protein X4 of SARS-CoV Urbani / Binding of serum 37 to looped/cyclic peptides of protein X4 of SARS-CoV Urbani / Binding of serum 6 to linear peptides of protein X5 of SARS-CoV Urbani / Binding of serum 37 to linear peptides of protein X5 of SARS-CoV Urbani / Binding of serum 37 to looped/cyclic peptides of protein X5 of SARS-CoV Urbani / Binding of serum 6 to linear peptides of protein N of SARS-CoV Urbani / Binding of serum 37 to linear peptides of protein N of SARS-CoV Urbani / Binding of serum 6 to linear peptide (PEPSCAN-ELISA) / Binding of serum 1a to looped/cyclic peptides of protein N of SARS-CoV Urbani / Binding of serum 1b to looped/cyclic peptides of protein N of SARS-CoV Urbani / Binding of serum 2 to looped/cyclic peptides of protein N of SARS-CoV Urbani / Binding of serum 6 to looped/cyclic peptides of protein N of SARS-CoV Urbani / Binding of serum 37 to looped/cyclic peptides of protein N of SARS-CoV Urbani / Binding of serum 62 to looped/cyclic peptides of protein N of SARS-CoV Urbani / Binding of serum London to looped/cyclic peptides of protein N of SARS-CoV Urbani / Binding of serum SARS-green to looped/cyclic peptides of protein N of SARS-CoV Urbani: unit not given here.

Assay [3] deals with control sera (pooled serum of ten healthy LUMC hospital workers; commercial negative donor pooled serum from the Dutch bloodbank). The class given is binding, human. Details: Binding of Control serum LUMC to linear peptides / Binding of Control serum Blood-bank to linear peptides / Binding of Control serum LUMC to looped peptides / Binding of Control Serum Blood-Bank to Looped peptides / Binding of Control serum LUMC to linear peptides of the protein M of SARS-CoV Urbani / Binding of Control serum Blood-bank to linear peptides of the protein M of SARS-CoV Urbani / Binding of Control serum LUMC to looped peptides of the protein M of SARS-CoV Urbani / Binding of Control Serum Blood-Bank to Looped peptides of the protein M of SARS-CoV Urbani: unit not given here.

For the sequence VSQIQLSLLKVTAFQ, in assay [1], the “Binding of a rabbit serum to linear peptides” value is listed as 0.6 and the “Binding of a rabbit serum to looped peptides” value was determined as 0.4. Further, in assay [2], the “Binding of serum 1a to linear peptides of protein X2” value was determined as 0.5, the “Binding of serum 1a to looped/cyclic peptides of protein X2 of SARS-CoV Urbani” value is on record as 0.5, the “Binding of serum 1b to linear peptides of protein X2” value was 0.4 and the “Binding of serum 1b to looped/cyclic peptides of protein X2 of SARS-CoV Urbani” value is 0.4. In assay [2], the “Binding of serum 2 to linear peptides of protein X2” value came to 0.4, the “Binding of serum 2 to looped/cyclic peptides of protein X2 of SARS-CoV Urbani” value worked out at 0.4, the “Binding of serum 6 to linear peptides of protein X2” value is recorded as 0.5 and the “Binding of serum 6 to looped/cyclic peptides of protein X2 of SARS-CoV Urbani” value stood at 0.6. For the same sequence, in assay [2], the “Binding of serum 37 to linear peptides of protein X2” value amounted to 0.6, the “Binding of serum 37 to looped/cyclic peptides of protein X2 of SARS-CoV Urbani” value is on record as 0.4, the “Binding of serum 62 to linear peptides of protein X2” value is on record as 0.3 and the “Binding of serum 62 to looped/cyclic peptides of protein X2 of SARS-CoV Urbani” value turned out to be 0.6. Further, in assay [2], the “Binding of serum London to linear peptides of protein X2” value is on record as 0.3, the “Binding of serum London to looped/cyclic peptides of protein X2 of SARS-CoV Urbani” value is recorded as 0.8, the “Binding of serum SARS-green to linear peptides of protein X2” value was found to be 0.1 and the “Binding of serum SARS-green to looped/cyclic peptides of protein X2 of SARS-CoV Urbani” value is on record as 0.3. Also, in assay [2], the “Binding of serum SARS-yellow to linear peptides of protein X2” value worked out at 0.4 and the “Binding of serum SARS-yellow to looped/cyclic peptides of protein X2 of SARS-CoV Urbani” value stood at 0.6. Also, in assay [3], the “Binding of Control Serum Blood-Bank to Looped peptides” value worked out at 0.6, the “Binding of Control serum Blood-bank to linear peptides” value was determined as 0.5, the “Binding of Control serum LUMC to linear peptides” value was determined as 0.8 and the “Binding of Control serum LUMC to looped peptides” value worked out at 0.6.
In the case of VTAFQHQNSKKTTKL, in assay [1], the “Binding of a rabbit serum to linear peptides” value is 0.6 and the “Binding of a rabbit serum to looped peptides” value is given as 0.4. Also, in assay [2], the “Binding of serum 1a to linear peptides of protein X2” value was 0.4, the “Binding of serum 1a to looped/cyclic peptides of protein X2 of SARS-CoV Urbani” value was determined as 0.4, the “Binding of serum 1b to linear peptides of protein X2” value is listed as 0.4 and the “Binding of serum 1b to looped/cyclic peptides of protein X2 of SARS-CoV Urbani” value turned out to be 0.3. Also, in assay [2], the “Binding of serum 2 to linear peptides of protein X2” value was determined as 0.2, the “Binding of serum 2 to looped/cyclic peptides of protein X2 of SARS-CoV Urbani” value was determined as 0.1, the “Binding of serum 6 to linear peptides of protein X2” value amounted to 0.3 and the “Binding of serum 6 to looped/cyclic peptides of protein X2 of SARS-CoV Urbani” value came to 0.3. In assay [2], the “Binding of serum 37 to linear peptides of protein X2” value was 0.5, the “Binding of serum 37 to looped/cyclic peptides of protein X2 of SARS-CoV Urbani” value amounted to 0.3, the “Binding of serum 62 to linear peptides of protein X2” value is given as 0.3 and the “Binding of serum 62 to looped/cyclic peptides of protein X2 of SARS-CoV Urbani” value amounted to 0.5. Besides, in assay [2], the “Binding of serum London to linear peptides of protein X2” value was 0.1, the “Binding of serum London to looped/cyclic peptides of protein X2 of SARS-CoV Urbani” value turned out to be 0.2, the “Binding of serum SARS-green to linear peptides of protein X2” value came to 0.1 and the “Binding of serum SARS-green to looped/cyclic peptides of protein X2 of SARS-CoV Urbani” value was found to be 0.2. Also, in assay [2], the “Binding of serum SARS-yellow to linear peptides of protein X2” value was determined as 0.7 and the “Binding of serum SARS-yellow to looped/cyclic peptides of protein X2 of SARS-CoV Urbani” value worked out at 0.5. In addition, in assay [3], the “Binding of Control Serum Blood-Bank to Looped peptides” value was determined as 0.5, the “Binding of Control serum Blood-bank to linear peptides” value was 0.3, the “Binding of Control serum LUMC to linear peptides” value amounted to 0.5 and the “Binding of Control serum LUMC to looped peptides” value is listed as 0.5.
For the sequence VTLACFVLAAVYRIN, in assay [1], the “Rabbit serum linear peptides” value is on record as 0.2 and the “Rabbit serum looped peptides” value was found to be 0.3. Also, in assay [2], the “Binding of serum 1a to linear peptides of protein M of SARS-CoV Urbani” value was 0.7, the “Binding of serum 1a to looped/cyclic peptides of protein M of SARS-CoV Urbani” value is listed as 0.8, the “Binding of serum 1b to linear peptides of protein M of SARS-CoV Urbani” value is given as 0.6 and the “Binding of serum 1b to looped/cyclic peptides of protein M of SARS-CoV Urbani” value stood at 0.6. Also, in assay [2], the “Binding of serum 2 to linear peptides of protein M of SARS-CoV Urbani” value worked out at 0.5, the “Binding of serum 2 to looped/cyclic peptides of protein M of SARS-CoV Urbani” value stood at 0.6, the “Binding of serum 6 to linear peptides of protein M of SARS-CoV Urbani” value is on record as 0.4 and the “Binding of serum 6 to looped/cyclic peptides of protein M of SARS-CoV Urbani” value was 0.8. Moreover, in assay [2], the “Binding of serum 37 to linear peptides of protein M of SARS-CoV Urbani” value is 0.4, the “Binding of serum 37 to looped/cyclic peptides of protein M of SARS-CoV Urbani” value was determined as 0.7, the “Binding of serum 62 to linear peptides of protein M of SARS-CoV Urbani” value was determined as 0.5 and the “Binding of serum 62 to looped/cyclic peptides of protein M of SARS-CoV Urbani” value is listed as 0.7. In assay [2], the “Binding of serum London to linear peptides of protein M of SARS-CoV Urbani” value came out at 0.3, the “Binding of serum London to looped/cyclic peptides of protein M of SARS-CoV Urbani” value was 0.3, the “Binding of serum SARS-green to linear peptides of protein M of SARS-CoV Urbani” value amounted to 0.5 and the “Binding of serum SARS-green to looped/cyclic peptides of protein M of SARS-CoV Urbani” value is 0.2. Also, in assay [2], the “Binding of serum SARS-yellow to linear peptides of protein M of SARS-CoV Urbani” value was determined as 0.1 and the “Binding of serum SARS-yellow to looped/cyclic peptides of protein M of SARS-CoV Urbani” value came out at 0.6. Further, in assay [3], the “Binding of Control Serum Blood-Bank to Looped peptides of the protein M of SARS-CoV Urbani” value worked out at 0.8, the “Binding of Control serum Blood-bank to linear peptides of the protein M of SARS-CoV Urbani” value came out at 0.5, the “Binding of Control serum LUMC to linear peptides of the protein M of SARS-CoV Urbani” value came to 0.5 and the “Binding of Control serum LUMC to looped peptides of the protein M of SARS-CoV Urbani” value came to 0.7.
In the case of VVHGYFTEVYYQLES, in assay [1], the “Binding of a rabbit serum to linear peptides” value worked out at 0.1 and the “Binding of a rabbit serum to looped peptides” value was found to be 0.7. Moreover, in assay [2], the “Binding of serum 1a to linear peptides of protein X1 of SARS-CoV Urbani” value came out at 0.8, the “Binding of serum 1a to looped/cyclic peptides of protein X1 of SARS-CoV Urbani” value was found to be 0.6, the “Binding of serum 1b to linear peptides of protein X1 of SARS-CoV Urbani” value was determined as 0.7 and the “Binding of serum 1b to looped/cyclic peptides of protein X1 of SARS-CoV Urbani” value was 0.4. For the same sequence, in assay [2], the “Binding of serum 2 to linear peptides of protein X1 of SARS-CoV Urbani” value turned out to be 0.4, the “Binding of serum 2 to looped/cyclic peptides of protein X1 of SARS-CoV Urbani” value is 0.4, the “Binding of serum 6 to linear peptides of protein X1 of SARS-CoV Urbani” value was found to be 0.3 and the “Binding of serum 6 to looped/cyclic peptides of protein X1 of SARS-CoV Urbani” value came to 0.3. For the same sequence, in assay [2], the “Binding of serum 37 to linear peptides of protein X1 of SARS-CoV Urbani” value is 0.5, the “Binding of serum 37 to looped/cyclic peptides of protein X1 of SARS-CoV Urbani” value was determined as 0.6, the “Binding of serum 62 to linear peptides of protein X1 of SARS-CoV Urbani” value is recorded as 0.4 and the “Binding of serum 62 to looped/cyclic peptides of protein X1 of SARS-CoV Urbani” value is recorded as 0.5. Also, in assay [2], the “Binding of serum London to linear peptides of protein X1 of SARS-CoV Urbani” value is listed as 0.2, the “Binding of serum London to looped/cyclic peptides of protein X1 of SARS-CoV Urbani” value is listed as 0.2, the “Binding of serum SARS-green to linear peptides of protein X1 of SARS-CoV Urbani” value is listed as 0.2 and the “Binding of serum SARS-green to looped/cyclic peptides of protein X1 of SARS-CoV Urbani” value is reported as 0.2. For the same sequence, in assay [2], the “Binding of serum SARS-yellow to linear peptides of protein X1 of SARS-CoV Urbani” value worked out at 0.3 and the “Binding of serum SARS-yellow to looped/cyclic peptides of protein X1 of SARS-CoV Urbani” value is 0.4. In assay [3], the “Binding of Control Serum Blood-Bank to Looped peptides” value is on record as 0.4, the “Binding of Control serum Blood-bank to linear peptides” value was 0.4, the “Binding of Control serum LUMC to linear peptides” value amounted to 0.8 and the “Binding of Control serum LUMC to looped peptides” value is listed as 0.6.
